# Data from the supplement of paper PMC10307832.
# Columns and labels:
# Assay in all cases: relative viability (nuclei count vs DMSO), 5 days (fraction); higher = more cells survive
# [1] = system: HCC-78
# In short: (§1)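 Five library-drug doses in √10 steps were combined with a fixed anchor-drug dose, or a single drug was given alone, by pin tool to lung cancer cell lines in 1536-well plates the day after seeding. Nuclei were stained and counted after 5 days. Relative viability is the nuclei count in treated wells over that in vehicle wells, taken as the median of duplicate plates.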
# [2] = system: NCI-H2087
# In short: as §1
# [3] = system: NCI-H1915
# In short: as §1
# [4] = system: H3255
# In short: as §1
# [5] = system: NCI-H661
# In short: as §1
# [6] = system: NCI-H2405
# In short: as §1
# [7] = system: NCI-H2347
# In short: as §1
# [8] = system: NCI-H650
# In short: as §1
# [9] = system: HCC-827
# In short: as §1
# [10] = system: ChaGo-K-1
# In short: as §1
# [11] = system: COR-L 105
# In short: as §1
# [12] = system: PC-14
# In short: as §1
# [13] = system: RERF-LC-KJ
# In short: as §1
# [14] = system: LCLC-97TM1
# In short: as §1
# [15] = system: LC-2-ad
# In short: as §1
# [16] = system: EPLC-272H
# In short: as §1
# [17] = system: NCI-H1666
# In short: as §1
# [18] = system: NCI-H520
# In short: as §1
# [19] = system: NCI-H23
# In short: as §1
# [20] = system: NCI-H647
# In short: as §1
# [21] = system: NCI-H2126
# In short: as §1
# [22] = system: 201T
# In short: as §1
compound,measurement,setting,value
Cc1sc2c(c1C)C(c1ccc(Cl)cc1)=N[C@@H](CC(=O)OC(C)(C)C)c1nnc(C)n1-2 [JQ1] + Cc1nc(Nc2ncc(C(=O)Nc3c(C)cccc3Cl)s2)cc(N2CCN(CCO)CC2)n1 [Dasatinib] (partner 0.075 µM),relative viability,[1]; first compound 0.04 µM,0.364
same,relative viability,[1]; first compound 0.1265 µM,0.419
same,relative viability,[1]; first compound 0.4 µM,0.366
same,relative viability,[1]; first compound 1.265 µM,0.319
same,relative viability,[1]; first compound 4 µM,0.248
same,relative viability,[2]; first compound 0.04 µM,0.781
same,relative viability,[2]; first compound 0.1265 µM,0.774
same,relative viability,[2]; first compound 0.4 µM,0.466
same,relative viability,[2]; first compound 1.265 µM,0.414
same,relative viability,[2]; first compound 4 µM,0.324
same,relative viability,[3]; first compound 0.04 µM,0.281
same,relative viability,[3]; first compound 0.1265 µM,0.303
same,relative viability,[3]; first compound 0.4 µM,0.317
same,relative viability,[3]; first compound 1.265 µM,0.249
same,relative viability,[3]; first compound 4 µM,0.191
same,relative viability,[4]; first compound 0.04 µM,0.438
same,relative viability,[4]; first compound 0.1265 µM,0.319
same,relative viability,[4]; first compound 0.4 µM,0.504
same,relative viability,[4]; first compound 1.265 µM,0.317
same,relative viability,[4]; first compound 4 µM,0.269
same,relative viability,[5]; first compound 0.04 µM,0.814
same,relative viability,[5]; first compound 0.1265 µM,0.564
same,relative viability,[5]; first compound 0.4 µM,0.558
same,relative viability,[5]; first compound 1.265 µM,0.379
same,relative viability,[5]; first compound 4 µM,0.556
same,relative viability,[6]; first compound 0.04 µM,0.19
same,relative viability,[6]; first compound 0.1265 µM,0.195
same,relative viability,[6]; first compound 0.4 µM,0.19
same,relative viability,[6]; first compound 1.265 µM,0.169
same,relative viability,[6]; first compound 4 µM,0.147
same,relative viability,[7]; first compound 0.04 µM,0.273
same,relative viability,[7]; first compound 0.1265 µM,0.395
same,relative viability,[7]; first compound 0.4 µM,0.304
same,relative viability,[7]; first compound 1.265 µM,0.371
same,relative viability,[7]; first compound 4 µM,0.235
same,relative viability,[8]; first compound 0.04 µM,0.462
same,relative viability,[8]; first compound 0.1265 µM,0.301
same,relative viability,[8]; first compound 0.4 µM,0.328
same,relative viability,[8]; first compound 1.265 µM,0.277
same,relative viability,[8]; first compound 4 µM,0.244
same,relative viability,[9]; first compound 0.04 µM,0.371
same,relative viability,[9]; first compound 0.4 µM,0.227
same,relative viability,[9]; first compound 1.265 µM,0.438
same,relative viability,[9]; first compound 4 µM,0.421
same,relative viability,[10]; first compound 0.04 µM,0.663
same,relative viability,[10]; first compound 0.1265 µM,0.462
same,relative viability,[10]; first compound 0.4 µM,0.44
same,relative viability,[10]; first compound 1.265 µM,0.485
same,relative viability,[10]; first compound 4 µM,0.397
same,relative viability,[11]; first compound 0.04 µM,0.297
same,relative viability,[11]; first compound 0.1265 µM,0.186
same,relative viability,[11]; first compound 0.4 µM,0.156
same,relative viability,[11]; first compound 1.265 µM,0.119
same,relative viability,[11]; first compound 4 µM,0.132
same,relative viability,[12]; first compound 0.04 µM,0.283
same,relative viability,[12]; first compound 0.1265 µM,0.187
same,relative viability,[12]; first compound 0.4 µM,0.119
same,relative viability,[12]; first compound 1.265 µM,0.14
same,relative viability,[12]; first compound 4 µM,0.05
same,relative viability,[13]; first compound 0.04 µM,0.763
same,relative viability,[13]; first compound 0.1265 µM,0.646
same,relative viability,[13]; first compound 0.4 µM,0.72
same,relative viability,[13]; first compound 1.265 µM,0.576
same,relative viability,[13]; first compound 4 µM,0.332
same,relative viability,[14]; first compound 0.04 µM,0.896
same,relative viability,[14]; first compound 0.1265 µM,0.906
same,relative viability,[14]; first compound 0.4 µM,0.645
same,relative viability,[14]; first compound 1.265 µM,0.694
same,relative viability,[14]; first compound 4 µM,0.352
same,relative viability,[15]; first compound 0.04 µM,0.505
same,relative viability,[15]; first compound 0.1265 µM,0.472
same,relative viability,[15]; first compound 0.4 µM,0.219
same,relative viability,[15]; first compound 1.265 µM,0.178
same,relative viability,[15]; first compound 4 µM,0.191
same,relative viability,[16]; first compound 0.04 µM,0.352
same,relative viability,[16]; first compound 0.1265 µM,0.382
same,relative viability,[16]; first compound 0.4 µM,0.358
same,relative viability,[16]; first compound 1.265 µM,0.175
same,relative viability,[16]; first compound 4 µM,0.204
same,relative viability,[17]; first compound 0.04 µM,0.791
same,relative viability,[17]; first compound 0.1265 µM,0.593
same,relative viability,[17]; first compound 0.4 µM,0.587
same,relative viability,[17]; first compound 1.265 µM,0.554
same,relative viability,[17]; first compound 4 µM,0.504
same,relative viability,[18]; first compound 0.04 µM,0.206
same,relative viability,[18]; first compound 0.1265 µM,0.196
same,relative viability,[18]; first compound 0.4 µM,0.207
same,relative viability,[18]; first compound 1.265 µM,0.159
same,relative viability,[18]; first compound 4 µM,0.221
same,relative viability,[19]; first compound 0.04 µM,0.666
same,relative viability,[19]; first compound 0.1265 µM,0.656
same,relative viability,[19]; first compound 0.4 µM,0.579
same,relative viability,[19]; first compound 1.265 µM,0.275
same,relative viability,[19]; first compound 4 µM,0.344
same,relative viability,[20]; first compound 0.04 µM,0.147
same,relative viability,[20]; first compound 0.1265 µM,0.0904
same,relative viability,[20]; first compound 0.4 µM,0.124
same,relative viability,[20]; first compound 1.265 µM,0.045
same,relative viability,[20]; first compound 4 µM,0.0403
same,relative viability,[21]; first compound 0.04 µM,0.651
same,relative viability,[21]; first compound 0.1265 µM,0.575
same,relative viability,[21]; first compound 0.4 µM,0.431
same,relative viability,[21]; first compound 1.265 µM,0.433
same,relative viability,[21]; first compound 4 µM,0.35
same,relative viability,[22]; first compound 0.04 µM,0.606
same,relative viability,[22]; first compound 0.1265 µM,0.428
same,relative viability,[22]; first compound 0.4 µM,0.508
same,relative viability,[22]; first compound 1.265 µM,0.491
same,relative viability,[22]; first compound 4 µM,0.372
